“And” between values parts separate entries of the source, which are not always exact repeats. Identical values can stand only once.
Test: molar heat capacity at constant pressure
Details: 101.33 kPa, Crystal, Small (less than 1 g) adiabatic calorimetry

O.O.O.O.O.O=S(=O)([O-])[O-].[Cu+2] [copper(II) sulfate pentahydrate]
Details | molar heat capacity at constant pressure
37.11 K | 32.81 J/K/mol
37.27 K | 32.75 J/K/mol
37.57 K | 33.3 J/K/mol
37.61 K | 33.52 J/K/mol
38.25 K | 34.37 J/K/mol
38.34 K | 34.7 J/K/mol
38.38 K | 34.84 J/K/mol
38.55 K | 34.93 J/K/mol
39.23 K | 35.95 J/K/mol
39.54 K | 36.51 J/K/mol
40 K | 37.15 J/K/mol
40.22 K | 37.51 J/K/mol
40.31 K | 37.77 J/K/mol
40.35 K | 37.93 J/K/mol
41.2 K | 39.02 J/K/mol
42.19 K | 40.35 J/K/mol
42.29 K | 40.63 J/K/mol
42.32 K | 41.04 J/K/mol
43.17 K | 41.93 J/K/mol
44.16 K | 43.29 J/K/mol
44.27 K | 43.38 J/K/mol
44.29 K | 44.04 J/K/mol
45 K | 44.39 J/K/mol
45.14 K | 44.61 J/K/mol
46.12 K | 45.87 J/K/mol
46.25 K | 46.08 J/K/mol
46.27 K | 47.03 J/K/mol
47.11 K | 47.24 J/K/mol
48.1 K | 48.62 J/K/mol
48.23 K | 48.95 J/K/mol
48.24 K | 49.93 J/K/mol
49.08 K | 50.18 J/K/mol
50 K | 51.93 J/K/mol
50.07 K | 52.01 J/K/mol
50.21 K | 52.31 J/K/mol
50.22 K | 52.88 J/K/mol
51.06 K | 53.89 J/K/mol
52.04 K | 55.62 J/K/mol
52.19 K | 55.66 J/K/mol and 55.74 J/K/mol
53.03 K | 57.23 J/K/mol
54.02 K | 58.82 J/K/mol
54.17 K | 58.74 J/K/mol
54.18 K | 58.73 J/K/mol
55 K | 60.26 J/K/mol and 60.19 J/K/mol
55.99 K | 61.63 J/K/mol
56.15 K | 61.82 J/K/mol
56.16 K | 61.65 J/K/mol
56.98 K | 62.69 J/K/mol
57.97 K | 63.82 J/K/mol
58.14 K | 64.89 J/K/mol
58.15 K | 64.47 J/K/mol
58.96 K | 65.23 J/K/mol
59.95 K | 66.92 J/K/mol
60 K | 66.98 J/K/mol
60.12 K | 67.94 J/K/mol
60.14 K | 67.3 J/K/mol
60.93 K | 68.42 J/K/mol
61.92 K | 69.94 J/K/mol
62.11 K | 70.89 J/K/mol
62.13 K | 70.09 J/K/mol
62.92 K | 71.4 J/K/mol
63.91 K | 72.71 J/K/mol
64.1 K | 73.66 J/K/mol
64.13 K | 72.85 J/K/mol
64.9 K | 74 J/K/mol
65 K | 74.12 J/K/mol
65.89 K | 75.34 J/K/mol
66.1 K | 76.33 J/K/mol
66.12 K | 75.65 J/K/mol
66.89 K | 76.71 J/K/mol
67.88 K | 78.07 J/K/mol
68.09 K | 78.22 J/K/mol and 78.9 J/K/mol
68.88 K | 79.31 J/K/mol
69.87 K | 80.54 J/K/mol
70 K | 80.85 J/K/mol and 80.84 J/K/mol
70.08 K | 81.47 J/K/mol
71.87 K | 83.38 J/K/mol
72.45 K | 84.21 J/K/mol
72.58 K | 84.91 J/K/mol
74.88 K | 87.18 J/K/mol
75 K | 87.24 J/K/mol
75.45 K | 87.98 J/K/mol
75.59 K | 88.72 J/K/mol
77.89 K | 90.83 J/K/mol
77.95 K | 91.36 J/K/mol
78.48 K | 91.71 J/K/mol
79.11 K | 92.21 J/K/mol
79.15 K | 92.84 J/K/mol
79.36 K | 93.03 J/K/mol
80 K | 93.33 J/K/mol
80.16 K | 93.95 J/K/mol
80.92 K | 94.52 J/K/mol
81.18 K | 95.24 J/K/mol
81.51 K | 95.36 J/K/mol
82.2 K | 96.42 J/K/mol
82.48 K | 96.2 J/K/mol
82.91 K | 97.32 J/K/mol
83.22 K | 97.59 J/K/mol
84.24 K | 98.9 J/K/mol
85 K | 99.12 J/K/mol
85.26 K | 100.17 J/K/mol
85.52 K | 99.69 J/K/mol
85.95 K | 100.9 J/K/mol
86.12 K | 100.4 J/K/mol
86.28 K | 101.27 J/K/mol
87.26 K | 101.63 J/K/mol
87.3 K | 102.49 J/K/mol
88.08 K | 103.41 J/K/mol
88.28 K | 102.83 J/K/mol
88.33 K | 103.67 J/K/mol
88.57 K | 103.19 J/K/mol
89 K | 104.46 J/K/mol
89.31 K | 103.96 J/K/mol
89.36 K | 104.73 J/K/mol
89.57 K | 104.25 J/K/mol
90 K | 104.7 J/K/mol
90.33 K | 105.21 J/K/mol
90.39 K | 105.94 J/K/mol
90.76 K | 106.39 J/K/mol
91.36 K | 106.32 J/K/mol
91.43 K | 107.16 J/K/mol
91.62 K | 106.68 J/K/mol
91.84 K | 106.75 J/K/mol
92.05 K | 107.96 J/K/mol
92.39 K | 107.49 J/K/mol
92.47 K | 108.25 J/K/mol
93.36 K | 109.28 J/K/mol
93.42 K | 108.59 J/K/mol
93.5 K | 109.47 J/K/mol
93.89 K | 109.02 J/K/mol
94.46 K | 109.82 J/K/mol
94.55 K | 110.67 J/K/mol
94.68 K | 110.09 J/K/mol
95 K | 110.3 J/K/mol
95.12 K | 111.38 J/K/mol
95.49 K | 110.97 J/K/mol
95.59 K | 111.73 J/K/mol
95.94 K | 111.25 J/K/mol
95.97 K | 112.11 J/K/mol
96.53 K | 111.9 J/K/mol
96.63 K | 112.87 J/K/mol
97.56 K | 113.1 J/K/mol
97.68 K | 113.95 J/K/mol
97.74 K | 113.41 J/K/mol
97.98 K | 113.44 J/K/mol
98.19 K | 114.68 J/K/mol
98.58 K | 114.96 J/K/mol
98.6 K | 114.41 J/K/mol
98.72 K | 115.17 J/K/mol
99.65 K | 115.37 J/K/mol
99.77 K | 116.31 J/K/mol
100 K | 115.7 J/K/mol
100.03 K | 115.65 J/K/mol
100.69 K | 116.49 J/K/mol
100.81 K | 117.42 J/K/mol
100.82 K | 116.62 J/K/mol
101.2 K | 117.71 J/K/mol
101.27 K | 117.92 J/K/mol

Source: the NIST ThermoML archive (doi:10.1016/j.jct.2017.03.026)
